Measurements taken from patent US20250304623A1, “PEPTIDES FOR INTRACELLULAR DELIVERY” (UNIVERSIDADE DE SANTIAGO DE COMPOSTELA, priority 2022, published 2025).
*: point of attachment. NHNH2 = NN*

Experiments:
Type in all cases: cell-based
[1] = tested on: ARPE19 cells expressing EGFP; experiment: EGFP-targeting siRNA delivery (GFP silencing vs siMOCK), ARPE19
How it was run: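 This siRNA delivery assay used stably EGFP-expressing cells seeded a day ahead in 96-well plates. siGFP and amphiphile were combined in DMEM at a constant 30 nM siRNA, incubated 30 min at room temperature, then applied for 4 h before switching to fresh DMEM with 10% FBS. After 72 h, a plate reader measured fluorescence decrease relative to non-targeting siMOCK, subtracting untreated background.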

[2] = tested on: Hek293 cells expressing EGFP; experiment: EGFP-targeting siRNA delivery (GFP silencing vs siMOCK), Hek293
[3] = tested on: HepG2 cells expressing EGFP; experiment: EGFP-targeting siRNA delivery (GFP silencing vs siMOCK), HepG2
How it was run: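 After 72 h, a plate reader measured EGFP fluorescence in HepG2 EGFP cells transfected with amphiphile/siRNA complexes (30 nM siGFP). Silencing was expressed as percent fluorescence decrease relative to cells given non-targeting siMOCK, with untreated-cell background subtracted. Triplicate means were reported, and Lipofectamine RNAiMAX served as a comparison.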

[4] = tested on: ARPE19 cells expressing EGFP; experiment: Cas9-RNP delivery against EGFP (gene editing, plate reader), ARPE19
How it was run: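 EGFP-expressing cells, generated by stable transfection with EGFP pDNA and G-418 selection, were plated in 96-well plates at 50,000 cell/mL (100 μL/w) in DMEM+10% FBS+1% Gln-Abt. Cas9-RNP targeting EGFP was complexed with amphiphile for 30 min, applied for 4 h at 50 nM RNP, and EGFP fluorescence was read on a plate reader after 72 h.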

[5] = tested on: HepG2 cells expressing EGFP; experiment: Cas9-RNP delivery against EGFP (gene editing, plate reader), HepG2
How it was run: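 Gene editing in EGFP-expressing HepG2 cells was estimated as the percentage drop in GFP fluorescence, measured in triplicate on a plate reader 72 h after Cas9-RNP delivery with amphiphiles. The RNP was made from annealed crRNA/tracrRNA plus 4 μM Cas9 and complexed with amphiphile before a 4 h exposure. Background from untreated control cells was subtracted.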

## Ac-RRLK*RLLRRLK*RLK*RRL-NH2 (Ac-RRLK(NHNH2)RLLRRLK(NHNH2)RLK(NHNH2)RRL-NH2; not fully specified; printed as Ac-RRLK*RLLRRLK*RLK*RRL-NH2; also: K*4,K*11,K*14: native or modified lysine (ε-amide to a linker)) [Peptide 17.3]
[1]; Dodecanal, 5 μM
  percentage of GFP-silencing relative to siMOCK: 29%
[1]; Dodecanal, 10 μM
  percentage of GFP-silencing relative to siMOCK: 14%
[1]; Dodecanal, 15 μM
  percentage of GFP-silencing relative to siMOCK: 22%
[1]; Myristoleyl, 5 μM
  percentage of GFP-silencing relative to siMOCK: 43%
[1]; Myristoleyl, 15 μM
  percentage of GFP-silencing relative to siMOCK: −5%
[1]; Oleyl, 10 μM
  percentage of GFP-silencing relative to siMOCK: 22%
[1]; Palmitoleyl, 5 μM
  percentage of GFP-silencing relative to siMOCK: 36%
[1]; Palmitoleyl, 10 μM
  percentage of GFP-silencing relative to siMOCK: 24%
[1]; Palmitoleyl, 15 μM
  percentage of GFP-silencing relative to siMOCK: −4%
[1]; Petroselinyl, 5 μM
  percentage of GFP-silencing relative to siMOCK: 36%
[1]; Petroselinyl, 10 μM
  percentage of GFP-silencing relative to siMOCK: 20%
[2]; Myristoleyl, 10 μM
  percentage of GFP-silencing relative to siMOCK: 48%
[2]; Oleyl, 15 μM
  percentage of GFP-silencing relative to siMOCK: 25%
[2]; Palmitoleyl, 10 μM
  percentage of GFP-silencing relative to siMOCK: 37%
[2]; Petroselinyl, 5 μM
  percentage of GFP-silencing relative to siMOCK: 9%
[2]; Petroselinyl, 15 μM
  percentage of GFP-silencing relative to siMOCK: 52%
[3]; Dodecanal, 5 μM
  percentage of GFP-silencing relative to siMOCK: 13%
[3]; Dodecanal, 10 μM
  percentage of GFP-silencing relative to siMOCK: 18%
[3]; Dodecanal, 15 μM
  percentage of GFP-silencing relative to siMOCK: −4%
[3]; Myristoleyl, 15 μM
  percentage of GFP-silencing relative to siMOCK: −18%
[3]; Oleyl, 10 μM
  percentage of GFP-silencing relative to siMOCK: 8%
[3]; Palmitoleyl, 5 μM
  percentage of GFP-silencing relative to siMOCK: 4%
[3]; Palmitoleyl, 15 μM
  percentage of GFP-silencing relative to siMOCK: −2%
[3]; Petroselinyl, 5 μM
  percentage of GFP-silencing relative to siMOCK: −11%
[3]; Petroselinyl, 10 μM
  percentage of GFP-silencing relative to siMOCK: 5%
[4]; Myristoleyl, 10 μM
  percentage of gene editing, GFP fluorescence intensity decrease (% of reduction): 44%
[4]; Oleyl, 10 μM
  percentage of gene editing, GFP fluorescence intensity decrease (% of reduction): 45%
[4]; Oleyl, 15 μM
  percentage of gene editing, GFP fluorescence intensity decrease (% of reduction): −9%
[4]; Palmitoleyl, 5 μM
  percentage of gene editing, GFP fluorescence intensity decrease (% of reduction): 12%
[4]; Palmitoleyl, 10 μM
  percentage of gene editing, GFP fluorescence intensity decrease (% of reduction): 60%
[4]; Palmitoleyl, 15 μM
  percentage of gene editing, GFP fluorescence intensity decrease (% of reduction): 31%
[4]; Petroselinyl, 10 μM
  percentage of gene editing, GFP fluorescence intensity decrease (% of reduction): 26%
[4]; Petroselinyl, 15 μM
  percentage of gene editing, GFP fluorescence intensity decrease (% of reduction): 27%
[5]; Myristoleyl, 5 μM
  percentage of gene editing, GFP fluorescence intensity decrease (% of reduction): 6%
[5]; Myristoleyl, 10 μM
  percentage of gene editing, GFP fluorescence intensity decrease (% of reduction): 38%
[5]; Palmitoleyl, 5 μM
  percentage of gene editing, GFP fluorescence intensity decrease (% of reduction): −2%
[5]; Palmitoleyl, 10 μM
  percentage of gene editing, GFP fluorescence intensity decrease (% of reduction): 31%
[5]; Palmitoleyl, 15 μM
  percentage of gene editing, GFP fluorescence intensity decrease (% of reduction): 31%
[5]; Petroselinyl, 5 μM
  percentage of gene editing, GFP fluorescence intensity decrease (% of reduction): −2%
[5]; Petroselinyl, 10 μM
  percentage of gene editing, GFP fluorescence intensity decrease (% of reduction): 39%
[5]; Petroselinyl, 15 μM
  percentage of gene editing, GFP fluorescence intensity decrease (% of reduction): 35%
